Measured values as given in US20140017187A1, “Use of 5-(7-methoxy-3,3-dimethyl-2,3-dihydro-1-benzoxepin-5-yl)-3-methyl-penta-2,4-dienoic acid as a cosmetic” (Merck Patent GmbH, priority 2008, published 2014).

Columns and labels:
B16-V melanoma cells = assay: Inhibition of melanin synthesis in B16-V melanoma cells (alpha-MSH stimulated); assay type: cell-based; details: 72 h, alpha-MSH stimulation
Experimental: DMSO is the solvent as negative and IBMX (3-Isobutyl-1-methylxantine) is our positive control. Kojic acid (KA) is the known reference ingredient for skin whitening.
B16-V melanoma cells were incubated for 72 h with assay medium containing different amounts of test substances. The concentration depends on the results of the MTT-Assay. Only concentrations without effect on viability (after 24 h incubation) were used for further melanin evaluation. Every 24 hours medium was changed and replaced by fresh assay medium containing the compounds and alpha-MSH (stimulation of melanin synthesis). The cell number was determined and the cells got lysed using 1M NaOH. Afterwards the amount of melanin was measured at 405 nm with a microplatereader (Safire2™, Tecan). Different concentrations of synthetic melanin were used to produce a calibration curve. Melanin content was expressed as pg/cell.

human skin model = assay: cDNA microarray gene expression profiling (Affymetrix) of treated skin equivalents, GeneGO MetaCore analysis; assay type: cell-based
Experimental: One of the advantages of cDNA microarray is the possibility to observe the expression pattern of the whole genes and compare with different conditions. This is the first study to determine the gene expression profiles of Compound-treated human skin. For the analysis of deregulated gene expression induced by substance Compound, treated and control samples from a human skin model were analyzed with Affymetrix oligonucleotide microarrays. Skin has been among the first organs analysed using DNA-Microarrays. In addition, epidermal keratinocytes have been the target of many studies because they respond to a rich variety of inflammatory and immunmodulating cytokines, hormones, vitamins, ultraviolet (UV) light, toxins and physical injury. Altered gene expression after applying substance Compound was analysed with an Affymetrix system.
For gene expression studies skin equivalents were treated with 50 μL of 2 relevant substance Compound with a concentration of c=50 μM in PBS-buffer/DMSO. Buffer-treated skin equivalents served as controls.
A ratio (log 2) value of zero indicates no regulation, whereas positive (log 2) values indicate an upregulation and negative (log 2) values a downregulation of the relevant gene.
The experiment contains 759 genes with the specified threshold (Appendix A)
GeneGO's Metacore (Pathways and Maps) Software.
Enrichment analysis consists of matching gene IDs for the common, similar and unique sets of the uploaded files with gene IDs in functional ontologies in MetaCore. The ontologies include canonical pathway maps, GeneGo cellular processes, GO cellular processes and diseases categories. The degree of “relevance” to different categories for the uploaded datasets is defined by p-values, so that the lower p-value gets higher priority.

[1] = Skin sensitization test (in house data)
animal models = details: in vivo
[2] = cDNA microarray, skin equivalents, 50 μM

COc1ccc2c(c1)C(/C=C/C(C)=C/C(=O)O)=CC(C)(C)CO2 [Compound, 5-(7-methoxy-3,3-dimethyl-2,3-dihydro-1-benzoxepin-5-yl)-3-methyl-penta-2,4-dienoic acid]
melanin inhibiting activity (melanin content pg/cell, FIG. 1) (B16-V melanoma cells): superb melanin inhibiting activity | melanin inhibiting activity compared with kojic acid (FIG. 1) (B16-V melanoma cells): significantly better than kojic acid | Ratio as Log2 value, gene CASP14 (human skin model; Caspase 14 precursor, skin equivalents, 50 μM, vs buffer-treated control): 1.44 Log2 | Ratio as Log2 value, gene UGCG (human skin model; Ceramide glucosyltransferase, skin equivalents, 50 μM, vs buffer-treated control): 0.7977 Log2 | Ratio as Log2 value, gene CDSN (human skin model; Corneodesmosin precursor, skin equivalents, 50 μM, vs buffer-treated control): 1.207 Log2 | Ratio as Log2 value, gene ELF3 (human skin model; ETS-related transcription factor Elf-3, skin equivalents, 50 μM, vs buffer-treated control): −1.46 Log2 | Ratio as Log2 value, gene EMP1 (human skin model; Epithelial membrane protein 1, skin equivalents, 50 μM, vs buffer-treated control): 1.278 Log2 | Ratio as Log2 value, gene KRT34 (human skin model; Keratin, type I cuticular Ha4, skin equivalents, 50 μM, vs buffer-treated control): 1.695 Log2 | Ratio as Log2 value, gene KRT10 (human skin model; Keratin, type I cytoskeletal 10, skin equivalents, 50 μM, vs buffer-treated control): −0.6644 Log2 | Ratio as Log2 value, gene KRT13 (human skin model; Keratin, type I cytoskeletal 13, skin equivalents, 50 μM, vs buffer-treated control): −0.8963 Log2 | Ratio as Log2 value, gene LAMA3 (human skin model; Laminin subunit alpha-3 precursor, skin equivalents, 50 μM, vs buffer-treated control): 0.6648 Log2 | Ratio as Log2 value, gene LAMB3 (human skin model; Laminin subunit beta-3 precursor, skin equivalents, 50 μM, vs buffer-treated control): 1.168 Log2 | Ratio as Log2 value, gene LCE2B (human skin model; Late cornified envelope protein 2B, skin equivalents, 50 μM, vs buffer-treated control): 1.326 Log2 | Ratio as Log2 value, gene PTHLH (human skin model; Parathyroid hormone-related protein, skin equivalents, 50 μM, vs buffer-treated control): −0.7916 Log2 | Ratio as Log2 value, gene S100a7 (human skin model; Protein S100-A7, skin equivalents, 50 μM, vs buffer-treated control): −0.6784 Log2 | Ratio as Log2 value, gene OVOL1 (human skin model; Putative transcription factor Ovo-like 1, skin equivalents, 50 μM, vs buffer-treated control): 1.064 Log2 | expression of FABP4 and Leptin (human skin model; cDNA microarray data): significantly upregulated | expression of Caspase 14, P57/KIP2 (human skin model; [2]): significantly upregulated | expression of Fibronectin, Elastin and Laminin (human skin model; [2]): upregulated significantly | expression of HAS2 gene (hyaluronan synthase 2) (human skin model; [2]): upregulated | expression of IL-6, TNF-alpha induced proteins, IL-8, CCL8, CCL2, CXCL2, CXCL12, CXCL3, CXCL5 and ICAM-1 (human skin model; [2]): significantly downregulated | expression of MMP genes MMP9, MMP14, MMP11 (human skin model; [2]): down regulated | expression of RXRA (retinoid X receptors A) (human skin model; [2]): upregulation | expression of S100A7, S100A7A and S100A12 (human skin model; [2]): downregulated | expression of SCARB, INSIG2, ATP binding cassette and VLDLR genes (human skin model; [2]): upregulation | Compound vs. Control, ratio Log(2) value (human skin model; gene ABCG1 (ABCG1_HUMAN, ATP-binding cassette sub-family G member 1)): 1.297 Log(2) | Compound vs. Control, ratio Log(2) value (human skin model; gene CASP14 (CASPE_HUMAN, Caspase-14 precursor)): 1.44 Log(2) | Compound vs. Control, ratio Log(2) value (human skin model; gene CCL2 (CCL2_HUMAN, C-C motif chemokine 2 precursor)): −1.731 Log(2) | Compound vs. Control, ratio Log(2) value (human skin model; gene CCL8 (CCL8_HUMAN, C-C motif chemokine 8 precursor)): −2.505 Log(2) | Compound vs. Control, ratio Log(2) value (human skin model; gene CDKN1C (CDN1C_HUMAN, Cyclin-dependent kinase inhibitor 1C)): 0.8737 Log(2) | Compound vs. Control, ratio Log(2) value (human skin model; gene CERK (CERK1_HUMAN, Ceramide kinase)): 0.729 Log(2) | Compound vs. Control, ratio Log(2) value (human skin model; gene CLDN17 (CLD17_HUMAN, Claudin-17)): 2.19 Log(2) | Compound vs. Control, ratio Log(2) value (human skin model; gene COL4A3BP (C43BP_HUMAN, Collagen type IV alpha-3-binding protein)): 1.233 Log(2) | Compound vs. Control, ratio Log(2) value (human skin model; gene CXCL2 (MIP2A_HUMAN, Macrophage inflammatory protein 2-alpha precursor)): −1.267 Log(2) | Compound vs. Control, ratio Log(2) value (human skin model; gene CXCL3 (MIP2B_HUMAN, Macrophage inflammatory protein 2-beta precursor)): −0.723 Log(2) | Compound vs. Control, ratio Log(2) value (human skin model; gene CXCL5 (CXCL5_HUMAN, C-X-C motif chemokine 5 precursor)): −0.8263 Log(2) | Compound vs. Control, ratio Log(2) value (human skin model; gene CXCL12 (SDF1_HUMAN, Stromal cell-derived factor 1 precursor)): −0.8377 Log(2) | Compound vs. Control, ratio Log(2) value (human skin model; gene EGFR (EGFR_HUMAN, Epidermal growth factor receptor precursor)): 0.9876 Log(2) | Compound vs. Control, ratio Log(2) value (human skin model; gene ELF3 (ELF3_HUMAN, ETS-related transcription factor Elf-3)): −1.46 Log(2) | Compound vs. Control, ratio Log(2) value (human skin model; gene ELN (ELN_HUMAN, Elastin precursor)): 0.7751 Log(2) | Compound vs. Control, ratio Log(2) value (human skin model; gene EMP1 (EMP1_HUMAN, Epithelial membrane protein 1)): 1.278 Log(2) | Compound vs. Control, ratio Log(2) value (human skin model; gene EMR2 (EMR2_HUMAN, EGF-like module-containing mucin-like hormone receptor-like 2 precursor)): 1.286 Log(2) | Compound vs. Control, ratio Log(2) value (human skin model; gene FABP4 (FABPA_HUMAN, Fatty acid-binding protein, adipocyte)): 2.125 Log(2) | Compound vs. Control, ratio Log(2) value (human skin model; gene FGF11 (FGF11_HUMAN, Fibroblast growth factor 11)): 0.9322 Log(2) | Compound vs. Control, ratio Log(2) value (human skin model; gene FLNB (FLNB_HUMAN, Filamin-B)): 0.6681 Log(2) | Compound vs. Control, ratio Log(2) value (human skin model; gene FN1 (FINC_HUMAN, Fibronectin precursor)): 1.364 Log(2) | Compound vs. Control, ratio Log(2) value (human skin model; gene GPC4 (GPC4_HUMAN, Glypican-4 precursor)): 0.7558 Log(2) | Compound vs. Control, ratio Log(2) value (human skin model; gene GPC6 (GPC6_HUMAN, Glypican-6 precursor)): 0.6711 Log(2) | Compound vs. Control, ratio Log(2) value (human skin model; gene GPX7 (GPX7_HUMAN, Glutathione peroxidase 7 precursor)): 0.8162 Log(2) | Compound vs. Control, ratio Log(2) value (human skin model; gene HAS2 (HAS2_HUMAN, Hyaluronan synthase 2)): 0.8154 Log(2) | Compound vs. Control, ratio Log(2) value (human skin model; gene ICAM1 (ICAM1_HUMAN, Intercellular adhesion molecule 1 precursor)): −1.612 Log(2) | Compound vs. Control, ratio Log(2) value (human skin model; gene IL6 (IL6_HUMAN, Interleukin-6 precursor)): −1.09 Log(2) | Compound vs. Control, ratio Log(2) value (human skin model; gene IL6ST (IL6RB_HUMAN, Interleukin-6 receptor subunit beta precursor)): −1.628 Log(2) | Compound vs. Control, ratio Log(2) value (human skin model; gene IL8 (IL8_HUMAN, Interleukin-8 precursor)): −0.6883 Log(2) | Compound vs. Control, ratio Log(2) value (human skin model; gene INSIG2 (INSI2_HUMAN, Insulin-induced gene 2 protein)): 0.6645 Log(2) | Compound vs. Control, ratio Log(2) value (human skin model; gene ITGB5 (ITB5_HUMAN, Integrin beta-5 precursor)): 0.7305 Log(2) | Compound vs. Control, ratio Log(2) value (human skin model; gene ITIH5 (ITIH5_80760, inter-alpha (globulin) inhibitor H5)): 1.192 Log(2) | Compound vs. Control, ratio Log(2) value (human skin model; gene LAMA3 (LAMA3_HUMAN, Laminin subunit alpha-3 precursor)): 0.6648 Log(2) | Compound vs. Control, ratio Log(2) value (human skin model; gene LAMB3 (LAMB3_HUMAN, Laminin subunit beta-3 precursor)): 1.168 Log(2) | Compound vs. Control, ratio Log(2) value (human skin model; gene LAMC1 (LAMC1_HUMAN, Laminin subunit gamma-1 precursor)): 0.7744 Log(2) | Compound vs. Control, ratio Log(2) value (human skin model; gene LEP (LEP_HUMAN, Leptin precursor)): 3.891 Log(2) | Compound vs. Control, ratio Log(2) value (human skin model; gene LEPR (LEPR_HUMAN, Leptin receptor precursor)): 0.7216 Log(2) | Compound vs. Control, ratio Log(2) value (human skin model; gene MMP9 (MMP9_HUMAN, Matrix metalloproteinase-9 precursor)): −0.8347 Log(2) | Compound vs. Control, ratio Log(2) value (human skin model; gene MMP11 (MMP11_HUMAN, Stromelysin-3 precursor)): −1.085 Log(2) | Compound vs. Control, ratio Log(2) value (human skin model; gene MMP14 (MMP14_HUMAN, Matrix metalloproteinase-14 precursor)): −0.6909 Log(2) | Compound vs. Control, ratio Log(2) value (human skin model; gene PLOD2 (PLOD2_HUMAN, Procollagen-lysine,2-oxoglutarate 5-dioxygenase 2 precursor)): 1.455 Log(2) | Compound vs. Control, ratio Log(2) value (human skin model; gene RXRA (RXRA_HUMAN, Retinoic acid receptor RXR-alpha)): 0.7793 Log(2) | Compound vs. Control, ratio Log(2) value (human skin model; gene S100A7 (S10A7_HUMAN, Protein S100-A7)): −0.6784 Log(2) | Compound vs. Control, ratio Log(2) value (human skin model; gene S100A7A (S1A7A_HUMAN, Protein S100-A7A)): −2.659 Log(2) | Compound vs. Control, ratio Log(2) value (human skin model; gene S100A12 (S10AC_HUMAN, Protein S100-A12)): −0.7202 Log(2) | Compound vs. Control, ratio Log(2) value (human skin model; gene SCARB1 (SCRB1_HUMAN, Scavenger receptor class B member 1)): 0.8349 Log(2) | Compound vs. Control, ratio Log(2) value (human skin model; gene TGFA (TGFA_HUMAN, Protransforming growth factor alpha precursor)): 0.8031 Log(2) | Compound vs. Control, ratio Log(2) value (human skin model; gene UGCG (CEGT_HUMAN, Ceramide glucosyltransferase)): 0.7977 Log(2) | Compound vs. Control, ratio Log(2) value (human skin model; gene VLDLR (VLDLR_HUMAN, Very low-density lipoprotein receptor precursor)): 0.9666 Log(2) | effect on GPC6 and S100A7 genes compared with old skin (human skin model; old skin (literature): S100A7 upregulated, GPC6 downregulated): opposite effect | skin sensitization [1]: no skin sensitization | toxic effect in animal models (animal models): no toxic effect
